IC50 data for 30 compounds are collected here from patent publication US20120165309A1, “HETERO RING DERIVATIVE” (Astellas Pharma Inc., priority 2009, published 2012).

The target in one test is T1, human PI3Kδ enzyme (Homo sapiens, UniProt O00329).
T1 construct: purchased Millipore Corporation 14-604
Nature of the test: PI3Kδ enzyme inhibitory activity (PI3-Kinase HTRF Assay kit). Type of test: biochemical. The note with it: human PI3Kδ 10 ng/well, ATP 30 μM, PIP2 10 μM, room temperature 30 minutes. On the procedure: 1. PI3Kδ Enzyme Inhibitory Activity
For the experiment, a PI3-Kinase HTRF Assay kit (Millipore Corporation, Catalogue No. 33-016) and a human PI3Kδ enzyme (Millipore Corporation, Catalogue No. 14-604) were used. The measurement method was in accordance with the appended instructions. The overview thereof is as follows.
PI3Kδ (10 ng/well), phosphatidylinositol-4,5-bisphosphate (10 μM), ATP (30 μM), and the test compound were mixed in a 384-well plate (total 20 μL), and incubated at room temperature for 30 minutes. EDTA and biotinylated phosphatidylinositol-3,4,5-triphosphate were added thereto to stop the reaction. Thereafter, a Europium labeled anti-GST antibody, a GST bond GRP1 PH domain, and streptavidin-APC were added thereto, followed by incubation overnight. An HTRF ratio was measured using an HTRF plate reader. The IC50 value of the compound was calculated, taking the inhibition rate without addition of the enzyme as 100% and the inhibition rate without addition of the test compound as 0%, by means of a logistic method.
(§1) In the Table, Ex represents Example Compound No. as described later, PI3Kδ represents the IC50 value (nM) of a PI3Kδ enzyme inhibitory activity, and PI3Kα represents the IC50 value (nM) of a PI3Kα enzyme inhibitory activity.

For the next test, the target named is T2, Human PI3Kα (Homo sapiens, UniProt P42336).
T2 construct: purchased Millipore Corporation 14-602
Briefly: PI3Kα enzyme inhibitory activity (Kinase-Glo Plus luminescence). Type of test: biochemical. The note with it: Human PI3Kα 12 ng/well, phosphatidylinositol 0.2 μg/well, 37° C. for 3 hours. The method, then: 2. PI3Kα Enzyme Inhibitory Activity
Human PI3Kα (12 ng/well, Millipore Corporation, Catalogue No. 14-602), phosphatidylinositol (0.2 μg/well), and the test compound were mixed in a 384-well plate in a reaction buffer (50 mM Hepes, 10 mM NaCl, 10 mM MgCl2, 2 mM EGTA, 2 mM DTT, pH 7.3) (total 10 μl), and incubated at 37° C. for 3 hours. After the reaction, 10 μL of a Kinase-Glo Plus reagent (Promega, Catalogue No. V3772) was added thereto, and a luminescence was measured with a luminometer. The IC50 value of the compound was calculated, taking the inhibition rate without addition of the enzyme as 100% and the inhibition rate without addition of the test compound as 0%, by a logistic method.
as §1
A general note: Kinase-Glo reads ATP consumption through a luciferase reaction.

The test system of test [1] is Spleen cells (B cell proliferation). Nature of the test: Rat B cell proliferation inhibition test (anti-rat IgM, [3H]thymidine). The note with it: anti-rat IgM 3 μg/well, 48 hours culture, [3H]thymidine uptake. Type of test: cell-based. The method, then: 4. Rat B Cell Proliferation Inhibition Test
Spleen cells (1.0×10^5 cells/well) prepared from male LEW/CrlCrlj rats (Charles River Laboratories, Japan, Inc.), mouse F(ab′)2 fragment anti-rat IgM (3 μg/well, SouthernBiotech Associates, Inc., Catalogue No. 3082-14) and the test compound dissolved in DMSO (final DMSO concentration 0.1%) were mixed in a 96-well plate using a 10% FCS-containing RPMI-1640 culture medium (total 200 μL). They were cultured in a CO2 incubator for 48 hours and [^3H]thymidine (925 GBq/mmol, Moravek Biochemicals, Inc., Catalogue No. MT6038) was added thereto at 0.037 MBq/well at 4 hours before completion of culture. Cells were harvested in a GF/C glass filter using a cell harvester, and a radioactivity on the filter was measured using a liquid scintillation counter. The IC50 value of the compound was calculated, taking the dpm (disintegration per minute) without addition of IgM as an inhibition rate of 100% and the dpm without addition of the test compound as an inhibition rate of 0%, by a logistic method.

T1 sequence (O00329 whole entry): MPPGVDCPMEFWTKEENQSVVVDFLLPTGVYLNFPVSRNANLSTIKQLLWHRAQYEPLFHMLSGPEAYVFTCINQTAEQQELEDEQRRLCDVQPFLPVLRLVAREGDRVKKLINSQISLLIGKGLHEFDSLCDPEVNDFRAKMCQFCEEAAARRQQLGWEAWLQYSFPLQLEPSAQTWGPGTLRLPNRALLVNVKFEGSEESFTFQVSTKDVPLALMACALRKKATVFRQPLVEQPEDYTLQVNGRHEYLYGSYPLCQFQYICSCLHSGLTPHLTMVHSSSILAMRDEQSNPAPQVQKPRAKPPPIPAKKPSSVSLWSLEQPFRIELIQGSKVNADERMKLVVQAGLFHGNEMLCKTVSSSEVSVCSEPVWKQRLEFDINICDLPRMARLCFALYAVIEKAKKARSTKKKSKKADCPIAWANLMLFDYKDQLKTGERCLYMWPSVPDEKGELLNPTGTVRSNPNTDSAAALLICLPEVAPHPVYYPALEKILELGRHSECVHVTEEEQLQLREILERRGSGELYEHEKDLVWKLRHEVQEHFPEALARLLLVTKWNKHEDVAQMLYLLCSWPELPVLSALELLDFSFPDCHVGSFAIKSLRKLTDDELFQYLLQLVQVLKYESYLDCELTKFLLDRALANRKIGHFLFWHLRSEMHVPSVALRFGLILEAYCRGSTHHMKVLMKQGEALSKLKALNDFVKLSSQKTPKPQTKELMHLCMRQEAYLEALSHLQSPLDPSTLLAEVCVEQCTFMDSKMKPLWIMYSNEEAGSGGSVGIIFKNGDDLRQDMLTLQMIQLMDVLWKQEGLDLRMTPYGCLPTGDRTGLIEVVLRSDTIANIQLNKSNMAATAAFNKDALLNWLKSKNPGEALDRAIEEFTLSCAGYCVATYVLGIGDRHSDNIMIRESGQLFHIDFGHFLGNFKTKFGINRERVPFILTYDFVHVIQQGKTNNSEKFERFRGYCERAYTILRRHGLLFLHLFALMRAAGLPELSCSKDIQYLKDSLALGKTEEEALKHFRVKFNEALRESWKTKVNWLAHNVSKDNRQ
T1 sequence (P27986 whole entry partner): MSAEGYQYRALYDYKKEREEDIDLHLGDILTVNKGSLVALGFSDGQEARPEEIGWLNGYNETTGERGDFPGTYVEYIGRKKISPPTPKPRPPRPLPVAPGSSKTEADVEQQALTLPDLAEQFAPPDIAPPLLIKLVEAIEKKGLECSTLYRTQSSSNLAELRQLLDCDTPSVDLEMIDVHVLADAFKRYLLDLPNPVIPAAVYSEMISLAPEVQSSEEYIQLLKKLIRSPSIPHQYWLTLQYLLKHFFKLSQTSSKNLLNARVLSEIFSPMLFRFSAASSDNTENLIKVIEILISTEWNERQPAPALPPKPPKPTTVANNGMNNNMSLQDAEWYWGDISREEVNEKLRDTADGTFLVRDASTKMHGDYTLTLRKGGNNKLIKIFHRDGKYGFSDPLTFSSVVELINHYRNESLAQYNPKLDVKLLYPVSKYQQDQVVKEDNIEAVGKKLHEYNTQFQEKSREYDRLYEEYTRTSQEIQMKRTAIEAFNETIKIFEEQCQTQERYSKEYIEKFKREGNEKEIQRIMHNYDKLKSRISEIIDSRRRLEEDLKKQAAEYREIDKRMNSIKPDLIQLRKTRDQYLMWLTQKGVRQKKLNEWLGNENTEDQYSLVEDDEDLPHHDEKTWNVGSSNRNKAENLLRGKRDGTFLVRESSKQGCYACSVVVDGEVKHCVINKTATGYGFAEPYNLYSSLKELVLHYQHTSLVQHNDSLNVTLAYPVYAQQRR
T2 sequence (P42336 whole entry): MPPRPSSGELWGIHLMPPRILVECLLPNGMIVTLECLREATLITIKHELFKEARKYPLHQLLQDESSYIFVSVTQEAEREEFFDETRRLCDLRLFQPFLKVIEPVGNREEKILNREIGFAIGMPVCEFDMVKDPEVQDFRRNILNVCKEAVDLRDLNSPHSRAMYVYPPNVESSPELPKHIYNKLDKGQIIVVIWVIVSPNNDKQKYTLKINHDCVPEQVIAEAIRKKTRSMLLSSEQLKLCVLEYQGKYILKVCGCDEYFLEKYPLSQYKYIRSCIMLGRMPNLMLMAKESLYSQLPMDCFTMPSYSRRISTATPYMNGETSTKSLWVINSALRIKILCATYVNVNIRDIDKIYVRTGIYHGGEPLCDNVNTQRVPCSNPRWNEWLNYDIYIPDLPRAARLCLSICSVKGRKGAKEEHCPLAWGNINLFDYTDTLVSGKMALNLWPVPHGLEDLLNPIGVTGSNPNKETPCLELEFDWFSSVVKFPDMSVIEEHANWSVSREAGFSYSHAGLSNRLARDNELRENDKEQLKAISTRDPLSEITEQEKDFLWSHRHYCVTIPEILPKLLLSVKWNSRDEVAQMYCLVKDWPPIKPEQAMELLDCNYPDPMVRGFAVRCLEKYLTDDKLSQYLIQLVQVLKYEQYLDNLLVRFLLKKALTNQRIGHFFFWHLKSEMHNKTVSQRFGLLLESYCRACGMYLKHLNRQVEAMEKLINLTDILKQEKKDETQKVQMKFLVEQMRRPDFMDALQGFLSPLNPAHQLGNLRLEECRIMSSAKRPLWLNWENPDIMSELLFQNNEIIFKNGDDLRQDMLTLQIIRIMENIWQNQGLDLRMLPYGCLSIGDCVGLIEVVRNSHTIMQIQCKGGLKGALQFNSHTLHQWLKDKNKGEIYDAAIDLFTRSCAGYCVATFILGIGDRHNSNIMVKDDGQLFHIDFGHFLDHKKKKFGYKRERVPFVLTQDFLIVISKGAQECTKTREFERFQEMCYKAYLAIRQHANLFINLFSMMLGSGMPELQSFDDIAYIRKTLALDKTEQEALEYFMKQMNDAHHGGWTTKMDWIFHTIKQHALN
T2 sequence (P27986 whole entry partner): as the sequence (P27986 whole entry partner) above

For the compound `COCC(C)N(C)[C@H]1CC[C@H](CNc2nc(N3CCOC[C@H]3C)cc(-n3c(C(F)F)nc4ccccc43)n2)CC1` (stereo partly shown) [Example 507], the IC50 on human PI3Kδ enzyme turned out to be 4.9 nM; on Human PI3Kα it was 490 nM; in test [1], 0.38 nM.

As to `CN(CC(C)(C)O)[C@H]1CC[C@H](CNc2nc(N3CCOCC3)cc(-n3c(C(F)F)nc4ccccc43)n2)CC1` [Example 375], the IC50 against human PI3Kδ enzyme is 12 nM; on Human PI3Kα, 1600 nM; in test [1] it was 1.2 nM.

For `FC[C@@H]1CCCN1[C@H]1CC[C@H](COc2cc(-n3c(C(F)F)nc4ccccc43)nc(N3CCOCC3)n2)CC1` [Example 482], the IC50 at human PI3Kδ enzyme was 4.6 nM; at Human PI3Kα, 3400 nM; in test [1], 4.6 nM.

For the compound `COC[C@@H]1CCCN1[C@H]1CC[C@@H](CNc2cc(-n3c(C(F)F)nc4ccccc43)nc(N3CCOCC3)n2)CC1` [Example 512], the IC50 against human PI3Kδ enzyme is 23 nM; on Human PI3Kα, more than 10000 nM; in test [1], 10 nM.

On to `C#CCN[C@H]1CC[C@H](CNc2nc(N3CCOCC3)cc(-n3c(C(F)F)nc4ccccc43)n2)CC1` [Example 422], for which the results for the IC50 (against human PI3Kδ enzyme; at Human PI3Kα; in test [1]) were 6 nM, 5800 nM and 4.9 nM, respectively.

On to `CN(CCO)[C@H]1CC[C@H](CNc2nc(N3CCOCC3)cc(-n3c(C(F)F)nc4ccccc43)n2)CC1` [Example 274], for which the IC50 at human PI3Kδ enzyme is 9.7 nM; on Human PI3Kα, more than 3000 nM; in test [1], 5.5 nM.

As for `CCN(CC(C)(C)O)[C@H]1CC[C@H](CNc2nc(N3CCOCC3)cc(-n3c(C(F)F)nc4ccccc43)n2)CC1` [Example 385], the IC50 against human PI3Kδ enzyme was 21 nM; in test [1], 1.9 nM.

As to `CCN(CC(C)(C)O)[C@H]1CC[C@H](CNc2nc(N3CCOC[C@@H]3C)cc(-n3c(C(F)F)nc4ccccc43)n2)CC1` [Example 403], the IC50 against human PI3Kδ enzyme was 4.9 nM; at Human PI3Kα it was 700 nM; in test [1], 0.82 nM.

Take `COCC(C)N[C@H]1CC[C@H](CNc2nc(N3CCOCC3)cc(-n3c(C(F)F)nc4ccccc43)n2)CC1` (stereo partly shown) [Example 399]: the IC50 on human PI3Kδ enzyme was determined as 22 nM; at Human PI3Kα, 3200 nM; in test [1], 3.4 nM.

Consider `COC[C@@H]1CCCN1[C@H]1CC[C@H](CNc2cc(-n3c(C(F)F)nc4ccccc43)nc(N3CCOCC3)n2)CC1` [Example 513], for which the IC50 on human PI3Kδ enzyme worked out at 3.5 nM; at Human PI3Kα, 3100 nM; in test [1], 0.64 nM.

Consider `FC(F)c1nc2ccccc2n1-c1cc(N2CCOCC2)nc(NC[C@H]2CC[C@H](N3CCCCC3)CC2)n1` [Example 177], for which the figures for the IC50 (against human PI3Kδ enzyme; on Human PI3Kα; in test [1]) were 4.8 nM, more than 3000 nM and 1.1 nM, respectively.

As to `COCC(C)N(C)[C@H]1CC[C@H](CNc2nc(N3CCOC[C@@H]3C)cc(-n3c(C(F)F)nc4ccccc43)n2)CC1` (stereo partly shown) [Example 447], the IC50 came to 5.3 nM on human PI3Kδ enzyme, 2900 nM at Human PI3Kα and 0.77 nM in test [1].

As for `FC(F)c1nc2ccccc2n1-c1cc(NC[C@H]2CC[C@H](N3CCOCC3)CC2)nc(N2CCOCC2)n1` [Example 223], the IC50 was 6.2 nM at human PI3Kδ enzyme, more than 10000 nM on Human PI3Kα and 1.5 nM in test [1].

On to `COCC(C)N[C@H]1CC[C@H](CNc2nc(N3CCOC[C@@H]3C)cc(-n3c(C(F)F)nc4ccccc43)n2)CC1` (stereo partly shown) [Example 446], for which the values for the IC50 (against human PI3Kδ enzyme; on Human PI3Kα; in test [1]) were 8.9 nM, 1700 nM and 1.7 nM, respectively.

In the case of `CC(C)(O)[C@@H]1CCCN1C1CCC(CNc2nc(N3CCOCC3)cc(-n3c(C(F)F)nc4ccccc43)n2)CC1` (stereo partly shown) [Example 490], the figures for the IC50 (against human PI3Kδ enzyme; at Human PI3Kα; in test [1]) were 9.4 nM, 1600 nM and 0.76 nM, respectively.

In the case of `CC(C)(O)CN(CC1CCC1)[C@H]1CC[C@H](CNc2nc(N3CCOCC3)cc(-n3c(C(F)F)nc4ccccc43)n2)CC1` [Example 441], the IC50 is 15 nM at human PI3Kδ enzyme, 5900 nM on Human PI3Kα and 4.2 nM in test [1].

On to `CCN(C(C)COC)[C@H]1CC[C@H](CNc2nc(N3CCOC[C@H]3C)cc(-n3c(C(F)F)nc4ccccc43)n2)CC1` (stereo partly shown) [Example 508], for which the IC50 on human PI3Kδ enzyme was determined as 4.6 nM; on Human PI3Kα it was 620 nM; in test [1], 0.37 nM.

On to `COC[C@@H]1CCCN1C1CCC(CNc2nc(N3CCOCC3)cc(-n3c(C(F)F)nc4ccccc43)n2)CC1` (stereo partly shown) [Example 456], for which the IC50 against human PI3Kδ enzyme came to 13 nM; at Human PI3Kα, 1800 nM; in test [1] it was 1.1 nM.

As for `COCCN(C1CC1)[C@H]1CC[C@H](CNc2nc(N3CCOCC3)cc(-n3c(C(F)F)nc4ccccc43)n2)CC1` [Example 246], the 50% inhibitory concentration (IC50) stood at 5.5 nM against human PI3Kδ enzyme, 1700 nM at Human PI3Kα and 2.1 nM in test [1].

On to `COCC(C)N(C)[C@H]1CC[C@H](CNc2nc(N3CCOCC3)cc(-n3c(C(F)F)nc4ccccc43)n2)CC1` (stereo partly shown) [Example 434], for which the half-inhibitory concentration (IC50) is 4.3 nM at human PI3Kδ enzyme, 1900 nM at Human PI3Kα and 1.3 nM in test [1].

As for `CN1CCC[C@H]1C(=O)N[C@H]1CC[C@H](Oc2cc(-n3c(C(F)F)nc4ccccc43)nc(N3CCOCC3)n2)CC1` [Example 500], the values for the IC50 (at human PI3Kδ enzyme; at Human PI3Kα; in test [1]) were 14 nM, more than 10000 nM and 2.7 nM, respectively.

Consider `FC(F)c1nc2ccccc2n1-c1cc(NC[C@H]2CC[C@H](N3CC[C@H](F)C3)CC2)nc(N2CCOCC2)n1` [Example 461], for which the values for the IC50 (against human PI3Kδ enzyme; at Human PI3Kα; in test [1]) were 16 nM, 3800 nM and 1.1 nM, respectively.

On to `COCCN(CC(C)F)[C@H]1CC[C@H](CNc2nc(N3CCOCC3)cc(-n3c(C(F)F)nc4ccccc43)n2)CC1` (stereo partly shown) [Example 374], for which the IC50 on human PI3Kδ enzyme was 6.4 nM; on Human PI3Kα, 1200 nM; in test [1] it was 2 nM.

Consider `C=CCN(CC(C)(C)O)[C@H]1CC[C@H](CNc2nc(N3CCOCC3)cc(-n3c(C(F)F)nc4ccccc43)n2)CC1` [Example 442], for which the IC50 amounted to 10 nM on human PI3Kδ enzyme, 2700 nM at Human PI3Kα and 1.2 nM in test [1].

Take `COCCN(C)[C@H]1CC[C@H](CNc2cc(-n3c(C(F)F)nc4ccccc43)nc(N3CCOCC3)n2)CC1` [Example 497]: the IC50 was determined as 16 nM on human PI3Kδ enzyme and 2.1 nM in test [1].

Consider `C=CCN(C(C)COC)[C@H]1CC[C@H](CNc2nc(N3CCOC[C@@H]3C)cc(-n3c(C(F)F)nc4ccccc43)n2)CC1` (stereo partly shown) [Example 491], for which the figures for the IC50 (at human PI3Kδ enzyme; at Human PI3Kα; in test [1]) were 4.5 nM, 570 nM and 1.8 nM, respectively.

In the case of `CN(CC(C)(C)O)[C@H]1CC[C@H](COc2cc(-n3c(C(F)F)nc4ccccc43)nc(N3CCOCC3)n2)CC1` [Example 488], the figures for the IC50 (against human PI3Kδ enzyme; at Human PI3Kα; in test [1]) were 30 nM, 5600 nM and 2.8 nM, respectively.

With `O=C(N[C@H]1CC[C@H](Nc2nc(N3CCOCC3)nc(-n3c(C(F)F)nc4ccccc43)n2)CC1)C(O)CO` (stereo partly shown) [Example 39], the IC50 against human PI3Kδ enzyme amounted to 9.5 nM; on Human PI3Kα, 470 nM.

Consider `CC(=O)N(C)[C@H]1CC[C@H](Nc2nc(N3CCOCC3)nc(-n3c(C(F)F)nc4ccccc43)n2)CC1` [Example 14, N-[trans-4-({4-[2-(difluoromethyl)-1H-benzimidazol-1-yl]-6-morpholin-4-yl-1,3,5-triazin-2-yl}amino)cyclohexyl]-N-methylacetamide], for which the IC50 against human PI3Kδ enzyme came out at 4.4 nM; on Human PI3Kα it was 1400 nM.

Turning to `O=C(NCCN1CCOCC1)N[C@H]1CC[C@H](Nc2nc(N3CCOCC3)nc(-n3c(C(F)F)nc4ccccc43)n2)CC1` [Example 6, 1-[trans-4-({4-[2-(difluoromethyl)-1H-benzimidazol-1-yl]-6-morpholin-4-yl-1,3,5-triazin-2-yl}amino)cyclohexyl]-3-(2-morpholin-4-ylethyl)urea], the IC50 was determined as 4.6 nM at human PI3Kδ enzyme and 330 nM on Human PI3Kα.

What is called IC50 is the concentration needed to halve the response being measured.
